# Reference: patent US20100056524A1, “Compound” (priority 2008, published 2010)
# Read-outs that look alike come from different tables or passages of the source.
# Columns and labels:
# [1] = biological target: T1, P38b MAPK (Homo sapiens, UniProt Q15759); assay: P38b MAPK protein kinase assay; format: biochemical; conditions: for remaining activity at 10 µM: 10 μM compound; for residual kinase activity P38b MAPK: 1 μm compound
# T1 construct: All protein kinases were of human origin and encoded full length proteins, unless indicated otherwise; made in house
# T1 sequence (Q15759 whole entry): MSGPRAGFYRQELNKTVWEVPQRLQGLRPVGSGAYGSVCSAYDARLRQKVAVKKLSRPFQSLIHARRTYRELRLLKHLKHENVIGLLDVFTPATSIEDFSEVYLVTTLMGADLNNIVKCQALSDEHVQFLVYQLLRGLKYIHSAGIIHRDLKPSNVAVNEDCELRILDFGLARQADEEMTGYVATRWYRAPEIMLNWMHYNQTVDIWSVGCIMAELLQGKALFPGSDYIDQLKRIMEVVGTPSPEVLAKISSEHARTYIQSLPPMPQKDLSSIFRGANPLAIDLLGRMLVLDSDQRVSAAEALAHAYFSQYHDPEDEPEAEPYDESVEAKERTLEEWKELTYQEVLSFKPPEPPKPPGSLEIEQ
# Description: (§1) All protein kinases were of human origin and encoded full length proteins, unless indicated otherwise. They were either expressed as glutathione S-transferase (GST) fusion proteins in Escherichia Coli or as hexahistidine (His6)-tagged proteins in insect Sf21 cells. GST fusion proteins were purified by affinity chromatography on glutathione-Sepharose, and His6-tagged proteins on nickel/nitriloacetate-agarose. The procedures for expressing some of the protein kinases used herein have been detailed previously.^8,9 The following sections outline the DNA vectors synthesised and the procedures used to express and purifying protein kinases that have not been reported previously.
# (§2) All assays (25.5 μl) were carried out at room temperature (21° C.) and were linear with respect to time and enzyme concentration under the conditions used. Assays were performed for 30 min using Multidrop Micro reagent dispensers (Thermo Electron Corporation, Waltham, Mass. 02454, USA) in a 96-well format. The concentration of magnesium acetate in the assays was 10 mM and the [γ-33P] ATP (800 cpm/pmol) was used at 5, 20 or 50 μM as indicated, in order to be at or below the Km for ATP for each enzyme. Protein kinases assayed at 5 μM ATP were: —ERK1, ERK8, PKBα, MARK3, Aurora C. Protein kinases assayed at 20 μM ATP were: —JNK1, PDK1, CHK1, CHK2, CDK2 and Aurora B. Protein kinases assayed at 50 μM ATP were: —MNK2, IKKepsilon and TBK1.
# (§3) The assays were initiated with MgATP, stopped by addition of 5 μl of 0.5 M orthophosphoric acid and spotted on to P81 filterplates using a unifilter harvester (PerkinElmer, Boston, Mass. 02118, USA). The IC50 values of inhibitors were determined after carrying out assays at 10 different concentrations of each compound.
# (§4) Unless stated otherwise, enzymes were diluted in 50 mM Tris/HCl pH 7.5, 0.1 mM EGTA, 1 mg/ml BSA, 0.1% (v/v) 2-mercaptoethanol and assayed in 50 mM Tris/HCl pH 7.5, 0.1 mM EGTA, 0.1% (v/v) 2-mercaptoethanol.
# [2] = biological target: T2, p38s MAPK (Homo sapiens, UniProt O15264); assay: p38s MAPK protein kinase assay; format: biochemical; conditions: for remaining activity at 10 µM: 10 μM compound; for residual kinase activity p38s MAPK: 1 μm compound
# T2 construct: All protein kinases were of human origin and encoded full length proteins, unless indicated otherwise; made in house
# T2 sequence (O15264 1-365): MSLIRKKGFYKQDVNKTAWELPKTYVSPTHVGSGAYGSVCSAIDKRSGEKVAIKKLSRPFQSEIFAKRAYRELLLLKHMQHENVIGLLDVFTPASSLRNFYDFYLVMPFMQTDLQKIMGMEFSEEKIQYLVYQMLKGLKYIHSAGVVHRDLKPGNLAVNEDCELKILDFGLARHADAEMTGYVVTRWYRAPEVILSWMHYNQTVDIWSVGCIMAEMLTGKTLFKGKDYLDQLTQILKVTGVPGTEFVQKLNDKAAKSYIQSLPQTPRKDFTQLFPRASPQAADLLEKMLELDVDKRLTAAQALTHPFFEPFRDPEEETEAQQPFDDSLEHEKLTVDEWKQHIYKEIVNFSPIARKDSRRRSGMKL
# Description: as §1, §2, §3, §4
# [3] = biological target: T3, MSK1 (Homo sapiens, UniProt O75582); assay: MSK1 protein kinase assay; format: biochemical; conditions: for remaining activity at 10 µM: 10 μM compound; for residual kinase activity MSK1: 1 μm compound
# T3 construct: All protein kinases were of human origin and encoded full length proteins, unless indicated otherwise; made in house
# T3 sequence (O75582 whole entry): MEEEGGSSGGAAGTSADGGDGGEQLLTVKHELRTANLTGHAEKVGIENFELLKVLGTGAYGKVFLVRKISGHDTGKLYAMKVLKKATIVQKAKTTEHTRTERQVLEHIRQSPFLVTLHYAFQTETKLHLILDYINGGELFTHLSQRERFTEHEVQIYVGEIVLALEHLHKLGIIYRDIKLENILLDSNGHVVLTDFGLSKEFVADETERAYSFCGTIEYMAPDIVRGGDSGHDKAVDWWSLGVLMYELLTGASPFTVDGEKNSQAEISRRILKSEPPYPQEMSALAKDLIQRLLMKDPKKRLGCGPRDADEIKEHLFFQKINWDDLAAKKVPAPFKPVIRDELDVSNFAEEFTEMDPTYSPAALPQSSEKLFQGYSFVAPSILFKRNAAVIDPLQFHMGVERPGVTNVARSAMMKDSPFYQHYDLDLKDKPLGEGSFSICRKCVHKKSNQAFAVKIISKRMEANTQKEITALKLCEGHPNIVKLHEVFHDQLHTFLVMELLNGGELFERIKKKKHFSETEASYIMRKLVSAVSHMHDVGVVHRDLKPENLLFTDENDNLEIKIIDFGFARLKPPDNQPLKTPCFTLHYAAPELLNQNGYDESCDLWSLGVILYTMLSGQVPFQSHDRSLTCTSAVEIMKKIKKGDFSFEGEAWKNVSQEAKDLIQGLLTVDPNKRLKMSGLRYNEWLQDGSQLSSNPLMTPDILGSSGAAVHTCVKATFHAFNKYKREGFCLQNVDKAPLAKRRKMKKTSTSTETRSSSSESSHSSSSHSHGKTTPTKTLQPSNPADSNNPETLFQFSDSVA
# Description: as §1, §2, §3, §4
# [4] = biological target: T4, MNK1 (Homo sapiens, UniProt Q9BUB5); assay: MNK1 protein kinase assay; format: biochemical; conditions: for remaining activity at 10 µM: 10 μM compound; for residual kinase activity MNK1: 1 μm compound
# T4 construct: All protein kinases were of human origin and encoded full length proteins, unless indicated otherwise; made in house
# T4 sequence (Q9BUB5 whole entry): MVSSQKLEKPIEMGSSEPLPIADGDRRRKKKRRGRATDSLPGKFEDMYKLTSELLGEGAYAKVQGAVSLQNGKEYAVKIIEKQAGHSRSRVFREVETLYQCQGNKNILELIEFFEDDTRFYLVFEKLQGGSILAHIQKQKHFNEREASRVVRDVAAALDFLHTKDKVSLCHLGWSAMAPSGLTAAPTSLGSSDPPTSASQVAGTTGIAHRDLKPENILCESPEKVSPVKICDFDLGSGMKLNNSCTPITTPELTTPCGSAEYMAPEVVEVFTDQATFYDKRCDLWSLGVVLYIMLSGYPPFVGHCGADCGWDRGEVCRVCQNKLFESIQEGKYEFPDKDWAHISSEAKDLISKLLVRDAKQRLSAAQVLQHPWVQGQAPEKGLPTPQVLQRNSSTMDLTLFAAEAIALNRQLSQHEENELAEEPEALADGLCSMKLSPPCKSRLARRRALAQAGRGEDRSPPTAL
# Description: as §1, §2, §3, §4
# [5] = biological target: T5, PLK1 (Okadaic Acid) (Homo sapiens, UniProt P53350); assay: PLK1 (Okadaic Acid) protein kinase assay; format: biochemical; conditions: for remaining activity at 10 µM: 10 μM compound; for residual kinase activity PLK1 (Okadaic Acid): 1 μm compound
# T5 construct: All protein kinases were of human origin and encoded full length proteins, unless indicated otherwise; made in house; host or cells: probably Sf21 insect cells treated with okadaic acid (inferred from the row name; the text says this only of Aurora B and C)
# T5 sequence (P53350 whole entry): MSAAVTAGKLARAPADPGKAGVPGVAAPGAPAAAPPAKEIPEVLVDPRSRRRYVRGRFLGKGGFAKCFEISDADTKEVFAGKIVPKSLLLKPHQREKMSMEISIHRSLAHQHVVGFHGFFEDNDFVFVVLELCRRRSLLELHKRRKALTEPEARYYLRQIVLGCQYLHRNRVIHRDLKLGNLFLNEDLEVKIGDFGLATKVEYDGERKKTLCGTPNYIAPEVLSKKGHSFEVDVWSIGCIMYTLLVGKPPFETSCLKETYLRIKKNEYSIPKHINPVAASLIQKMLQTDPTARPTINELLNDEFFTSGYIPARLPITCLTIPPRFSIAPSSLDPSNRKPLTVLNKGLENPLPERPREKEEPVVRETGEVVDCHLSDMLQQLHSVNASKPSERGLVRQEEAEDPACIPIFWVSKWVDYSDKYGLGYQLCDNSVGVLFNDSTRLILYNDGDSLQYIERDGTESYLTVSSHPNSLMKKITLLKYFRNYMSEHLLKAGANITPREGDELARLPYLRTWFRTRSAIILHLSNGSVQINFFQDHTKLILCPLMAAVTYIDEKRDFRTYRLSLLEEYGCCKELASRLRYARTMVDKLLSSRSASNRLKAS
# Description: as §1, §2, §3, §4
# [6] = biological target: T6, NEK6 (Homo sapiens, UniProt Q9HC98); assay: NEK6 protein kinase assay; format: biochemical; conditions: for remaining activity at 10 µM: 10 μM compound; for residual kinase activity NEK6: 1 μm compound
# T6 construct: All protein kinases were of human origin and encoded full length proteins, unless indicated otherwise; made in house
# T6 sequence (Q9HC98 whole entry): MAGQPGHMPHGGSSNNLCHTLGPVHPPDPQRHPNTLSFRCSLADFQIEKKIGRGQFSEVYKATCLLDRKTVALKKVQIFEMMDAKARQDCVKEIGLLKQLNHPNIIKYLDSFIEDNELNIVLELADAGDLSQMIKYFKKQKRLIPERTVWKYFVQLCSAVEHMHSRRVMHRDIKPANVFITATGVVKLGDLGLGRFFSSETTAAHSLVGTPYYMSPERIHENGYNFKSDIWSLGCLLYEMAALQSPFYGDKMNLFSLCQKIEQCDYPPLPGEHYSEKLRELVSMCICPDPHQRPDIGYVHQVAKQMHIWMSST
# Description: as §1, §2, §3, §4
# [7] = biological target: T7, HIPK2 (Homo sapiens, UniProt Q9H2X6); assay: HIPK2 protein kinase assay; format: biochemical; conditions: for remaining activity at 10 µM: 10 μM compound; for residual kinase activity HIPK2: 1 μm compound
# T7 construct: All protein kinases were of human origin and encoded full length proteins, unless indicated otherwise; made in house
# T7 sequence (Q9H2X6 165-564 limits assumed): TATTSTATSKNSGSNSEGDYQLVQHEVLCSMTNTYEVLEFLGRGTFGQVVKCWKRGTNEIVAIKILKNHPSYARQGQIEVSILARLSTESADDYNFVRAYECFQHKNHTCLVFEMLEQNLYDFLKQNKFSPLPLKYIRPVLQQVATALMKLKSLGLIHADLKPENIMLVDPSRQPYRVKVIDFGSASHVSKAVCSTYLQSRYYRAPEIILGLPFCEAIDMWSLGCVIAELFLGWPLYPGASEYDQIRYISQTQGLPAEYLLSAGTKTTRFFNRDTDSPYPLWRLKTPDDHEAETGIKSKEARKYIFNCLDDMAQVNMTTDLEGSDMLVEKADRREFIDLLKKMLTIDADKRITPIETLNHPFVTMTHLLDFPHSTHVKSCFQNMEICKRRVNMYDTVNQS
# Description: as §1, §2, §3, §4
# [8] = biological target: T8, CSK (Homo sapiens, UniProt P41240); assay: CSK protein kinase assay; format: biochemical; conditions: for remaining activity at 10 µM: 10 μM compound; for residual kinase activity CSK: 1 μm compound
# T8 construct: All protein kinases were of human origin and encoded full length proteins, unless indicated otherwise; made in house
# T8 sequence (P41240 whole entry): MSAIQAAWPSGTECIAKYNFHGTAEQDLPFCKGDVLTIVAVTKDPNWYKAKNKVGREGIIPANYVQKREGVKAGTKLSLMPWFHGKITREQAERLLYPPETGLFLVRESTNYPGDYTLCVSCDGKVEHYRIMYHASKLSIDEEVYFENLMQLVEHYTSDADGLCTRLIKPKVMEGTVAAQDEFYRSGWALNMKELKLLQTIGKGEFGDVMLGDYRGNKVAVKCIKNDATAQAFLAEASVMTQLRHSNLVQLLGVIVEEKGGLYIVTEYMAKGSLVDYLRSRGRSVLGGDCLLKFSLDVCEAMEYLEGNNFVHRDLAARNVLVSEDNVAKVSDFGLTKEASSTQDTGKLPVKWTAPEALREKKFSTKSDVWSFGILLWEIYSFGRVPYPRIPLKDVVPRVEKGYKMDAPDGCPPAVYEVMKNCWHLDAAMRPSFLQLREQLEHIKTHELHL
# Description: as §1, §2, §3, §4
# [9] = test system: IRR; assay: IRR protein kinase assay; format: biochemical, human; conditions: for residual kinase activity: IRR
# Description: as §1, §2, §3, §4
# [10] = biological target: T9, SYK (Homo sapiens, UniProt P43405); assay: SYK protein kinase assay; format: biochemical; conditions: for remaining activity at 10 µM: 10 μM compound; for residual kinase activity SYK: 1 μm compound
# T9 construct: All protein kinases were of human origin and encoded full length proteins, unless indicated otherwise; made in house
# Description: as §1, §2, §3, §4
# [11] = biological target: T10, BTK (Homo sapiens, UniProt Q06187); assay: BTK protein kinase assay; format: biochemical; conditions: for remaining activity at 10 µM: 10 μM compound; for residual kinase activity BTK: 1 μm compound
# T10 construct: All protein kinases were of human origin and encoded full length proteins, unless indicated otherwise; made in house
# T10 sequence (Q06187 whole entry): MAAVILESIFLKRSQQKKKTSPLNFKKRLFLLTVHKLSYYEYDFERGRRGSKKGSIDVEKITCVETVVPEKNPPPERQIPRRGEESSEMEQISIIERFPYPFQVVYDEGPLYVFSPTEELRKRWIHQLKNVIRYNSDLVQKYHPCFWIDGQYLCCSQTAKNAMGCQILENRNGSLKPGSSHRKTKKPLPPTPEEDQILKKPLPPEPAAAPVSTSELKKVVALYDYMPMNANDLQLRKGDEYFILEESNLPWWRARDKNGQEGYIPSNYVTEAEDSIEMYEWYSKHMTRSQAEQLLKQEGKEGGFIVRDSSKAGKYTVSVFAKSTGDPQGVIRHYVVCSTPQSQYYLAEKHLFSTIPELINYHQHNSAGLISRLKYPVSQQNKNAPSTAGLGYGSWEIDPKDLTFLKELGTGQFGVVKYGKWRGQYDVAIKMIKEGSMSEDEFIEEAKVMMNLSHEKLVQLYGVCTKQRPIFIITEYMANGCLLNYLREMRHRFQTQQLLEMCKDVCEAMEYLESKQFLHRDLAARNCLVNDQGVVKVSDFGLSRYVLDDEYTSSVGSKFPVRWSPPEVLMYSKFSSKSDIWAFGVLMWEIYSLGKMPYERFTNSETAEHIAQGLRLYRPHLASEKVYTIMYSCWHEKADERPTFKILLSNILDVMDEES
# Description: as §1, §2, §3, §4
# [12] = read-out: residual kinase activity P38b MAPK
# [13] = read-out: residual kinase activity p38s MAPK
# [14] = read-out: residual kinase activity MSK1
# [15] = read-out: residual kinase activity MNK1
# [16] = read-out: residual kinase activity PLK1 (Okadaic Acid)
# [17] = read-out: residual kinase activity NEK6
# [18] = read-out: residual kinase activity HIPK2
# [19] = read-out: residual kinase activity CSK
# [20] = read-out: residual kinase activity SYK
# [21] = read-out: residual kinase activity BTK
smiles,measurement,setting,value
"O=C(NCCCNc1nc(Nc2cccc(F)c2)ncc1Br)C1CCC1 [Compound A, cyclobutanecarboxylic acid {3-[5-bromo-2-(3-fluoro-phenylamino)-pyrimidin-4-ylamino]-propyl}-amide, reference compound]",remaining activity at 10 µM,[1]; [12],80%
same,residual kinase activity P38b MAPK,[1],96%
same,remaining activity at 10 µM,[2]; [13],15%
same,residual kinase activity p38s MAPK,[2],55%
same,remaining activity at 10 µM,[3]; [14],24%
same,residual kinase activity MSK1,[3],62%
same,remaining activity at 10 µM,[4]; [15],15%
same,residual kinase activity MNK1,[4],49%
same,remaining activity at 10 µM,[5]; [16],39%
same,residual kinase activity PLK1 (Okadaic Acid),[5],95%
same,remaining activity at 10 µM,[6]; [17],93%
same,residual kinase activity NEK6,[6],88%
same,remaining activity at 10 µM,[7]; [18],12%
same,residual kinase activity HIPK2,[7],58%
same,remaining activity at 10 µM,[8]; [19],51%
same,residual kinase activity CSK,[8],86%
same,residual kinase activity IRR,[9]; 10 μM compound,15%
same,residual kinase activity IRR,[9]; 1 μm compound,32%
same,remaining activity at 10 µM,[10]; [20],4%
same,residual kinase activity SYK,[10],25%
same,remaining activity at 10 µM,[11]; [21],33%
same,residual kinase activity BTK,[11],94%
"O=C(NCCCNc1nc(Nc2cccc(F)c2)ncc1C1CC1)C1CCC1 [Example 23, Cyclobutanecarboxylic acid {3-[5-cyclopropyl-2-(3-fluoro-phenylamino)-pyrimidin-4-ylamino]-propyl}-amide]",remaining activity at 10 µM,[1]; [12],92%
same,residual kinase activity P38b MAPK,[1],86%
same,remaining activity at 1 µM,"[1]; P38b MAPK, 1 μM compound, read-out: residual kinase activity",86%
same,remaining activity at 10 µM,"[1]; P38b MAPK, read-out: residual kinase activity",92%
same,remaining activity at 10 µM,[2]; [13],72%
same,residual kinase activity p38s MAPK,[2],77%
same,remaining activity at 1 µM,"[2]; p38s MAPK, 1 μM compound, read-out: residual kinase activity",77%
same,remaining activity at 10 µM,"[2]; p38s MAPK, read-out: residual kinase activity",72%
same,remaining activity at 10 µM,[3]; [14],34%
same,residual kinase activity MSK1,[3],74%
same,remaining activity at 1 µM,"[3]; MSK1, 1 μM compound, read-out: residual kinase activity",74%
same,remaining activity at 10 µM,"[3]; MSK1, read-out: residual kinase activity",34%
same,remaining activity at 10 µM,[4]; [15],62%
same,residual kinase activity MNK1,[4],85%
same,remaining activity at 1 µM,"[4]; MNK1, 1 μM compound, read-out: residual kinase activity",85%
same,remaining activity at 10 µM,"[4]; MNK1, read-out: residual kinase activity",62%
same,remaining activity at 10 µM,[5]; [16],46%
same,residual kinase activity PLK1 (Okadaic Acid),[5],66%
same,remaining activity at 1 µM,"[5]; PLK1 (Okadaic Acid), 1 μM compound, read-out: residual kinase activity",66%
same,remaining activity at 10 µM,"[5]; PLK1 (Okadaic Acid), read-out: residual kinase activity",46%
same,remaining activity at 10 µM,[6]; [17],83%
same,residual kinase activity NEK6,[6],88%
same,remaining activity at 1 µM,"[6]; NEK6, 1 μM compound, read-out: residual kinase activity",88%
same,remaining activity at 10 µM,"[6]; NEK6, read-out: residual kinase activity",83%
same,remaining activity at 10 µM,[7]; [18],26%
same,residual kinase activity HIPK2,[7],59%
same,remaining activity at 1 µM,"[7]; HIPK2, 1 μM compound, read-out: residual kinase activity",59%
same,remaining activity at 10 µM,"[7]; HIPK2, read-out: residual kinase activity",26%
same,remaining activity at 10 µM,[8]; [19],69%
same,residual kinase activity CSK,[8],77%
same,remaining activity at 1 µM,"[8]; CSK, 1 μM compound, read-out: residual kinase activity",77%
same,remaining activity at 10 µM,"[8]; CSK, read-out: residual kinase activity",69%
same,residual kinase activity IRR,[9]; 10 μM compound,17%
same,residual kinase activity IRR,[9]; 1 μm compound,44%
same,residual kinase activity,[9]; 1 μM compound,44%
same,residual kinase activity,[9]; 10 μM compound,17%
same,remaining activity at 10 µM,[10]; [20],46%
same,residual kinase activity SYK,[10],87%
same,remaining activity at 1 µM,"[10]; SYK, 1 μM compound, read-out: residual kinase activity",87%
same,remaining activity at 10 µM,"[10]; SYK, read-out: residual kinase activity",46%
same,remaining activity at 10 µM,[11]; [21],25%
same,residual kinase activity BTK,[11],74%
same,remaining activity at 1 µM,"[11]; BTK, 1 μM compound, read-out: residual kinase activity",74%
same,remaining activity at 10 µM,"[11]; BTK, read-out: residual kinase activity",25%
